Source: ChEMBL document CHEMBL5244253, “Recent research progress on natural small molecule bibenzyls and its derivatives in Dendrobium species” (Eur J Med Chem, 2020)

Tests used:
PC-12 [1] = test: Neuroprotection against Amyloid beta (25 to 35)-induced toxicity in rat PC-12 cells assessed as increase in cell viability at 25 uM for 24 hrs by MTT assay relative to control; type: functional
PC-12 [2] = test: Neuroprotection against Amyloid beta (25 to 35)-induced toxicity in rat PC-12 cells assessed as increase in cell viability at 50 uM for 24 hrs by MTT assay relative to control; type: functional
PC-12 [3] = test: Neuroprotection against Amyloid beta (25 to 35)-induced toxicity in rat PC-12 cells assessed as increase in cell viability at 10 uM for 24 hrs by MTT assay relative to control; type: functional
HL-60 = test: Anti-cancer activity against human HL-60 cells; type: functional, cell-based
RAW264.7 = test: Antiinflammatory activity in mouse RAW264.7 cells assessed as inhibition of LPS-induced NO production at 25 uM measured after 24 hrs; type: functional
[4] = target: Tyrosine-protein phosphatase non-receptor type 1 (Homo sapiens, UniProt P18031); test: Inhibition of PTP1B (unknown origin)
THP-1 = test: Anti-cancer activity against human THP-1 cells; type: functional, cell-based
NCI-H23 = test: Anti-cancer activity against human NCI-H23 cells; type: functional, cell-based
[5] = Antioxidant activity assessed as DPPH radical scavenging activity incubated for 30 mins by spectrophotometric analysis; type: functional
Bel-7402 = test: Anti-cancer activity against human Bel-7402 cells; type: functional, cell-based
K562 = test: Anti-cancer activity against human K562 cells; type: functional, cell-based
SGC-7901 = test: Anti-cancer activity against human SGC-7901 cells; type: functional, cell-based
[6] = Antioxidant activity assessed as DPPH radical scavenging activity at 100 ug/ml incubated for 30 mins by spectrophotometric analysis; type: functional; settings: dose 100.0 µg/ml
HT-29 = test: Cytotoxicity against human HT-29 cells assessed as cell viability incubated for 72 hrs by MTT assay; type: functional, cell-based; settings: HT-29, 72 h
HepG2 [7] = test: Cytotoxicity against human HepG2 cells assessed as cell viability incubated for 72 hrs by MTT assay; type: functional, cell-based; settings: HepG2, 72 h
MDA-MB-231 = test: Cytotoxicity against human MDA-MB-231 cells assessed as cell viability incubated for 72 hrs by MTT assay; type: functional, cell-based; settings: MDA-MB-231, 72 h
MCF7 [8] = test: Cytotoxicity against human MCF7 cells assessed as cell viability incubated for 48 hrs by MTS assay; type: functional, cell-based; settings: MCF7, 48 h
PC-12 [9] = test: Neurotrophic activity in rat PC-12 cells assessed as induction of NGF-mediated neurite outgrowth at 10 uM measured after 72 hrs relative to control; type: functional
[10] = target: Aldo-keto reductase family 1 member B1 (Homo sapiens, UniProt P15121); test: Inhibition of aldose reductase (unknown origin) using DL-glyceraldehyde as substrate
NCI-H292 = test: Anti-cancer activity against human NCI-H292 cells; type: functional, cell-based
T-24 = test: Anti-cancer activity against human T24 cells; type: functional, cell-based
[11] = target: Nitric oxide synthase, inducible (Homo sapiens, UniProt P35228); test: Inhibition of iNOS (unknown origin)
[12] = Permeability of the compound by PAMPA-BBB assay; type: ADME; settings: read-out: permeability
NCI-H460 [13] = test: Cytotoxicity against human NCI-H460 cells assessed as cell viability by MTT assay; type: functional, cell-based
KB = test: Anti-cancer activity against human KB cells; type: functional, cell-based
HepG2 [14] = test: Anti-cancer activity against human HepG2 cells; type: functional, cell-based
MCF7 [15] = test: Anti-cancer activity against human MCF7 cells; type: functional, cell-based
NCI-H187 = test: Anti-cancer activity against human NCI-H187 cells; type: functional, cell-based
NCI-H460 [16] = test: Anti-cancer activity against human NCI-H460 cells; type: functional, cell-based

Chain of Tyrosine-protein phosphatase non-receptor type 1 (P18031 whole entry): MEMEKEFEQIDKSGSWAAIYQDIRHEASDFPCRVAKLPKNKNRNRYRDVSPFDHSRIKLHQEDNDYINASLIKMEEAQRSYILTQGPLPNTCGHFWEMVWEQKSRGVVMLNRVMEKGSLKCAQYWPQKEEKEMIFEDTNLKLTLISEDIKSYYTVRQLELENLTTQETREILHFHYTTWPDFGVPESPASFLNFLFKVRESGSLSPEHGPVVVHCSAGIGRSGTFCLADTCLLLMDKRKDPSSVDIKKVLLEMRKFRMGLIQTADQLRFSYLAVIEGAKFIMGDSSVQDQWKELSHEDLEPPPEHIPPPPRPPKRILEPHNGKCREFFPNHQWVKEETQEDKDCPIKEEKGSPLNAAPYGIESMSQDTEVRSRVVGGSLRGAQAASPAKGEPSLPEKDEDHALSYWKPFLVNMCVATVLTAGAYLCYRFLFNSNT
Chain of Nitric oxide synthase, inducible (P35228 whole entry): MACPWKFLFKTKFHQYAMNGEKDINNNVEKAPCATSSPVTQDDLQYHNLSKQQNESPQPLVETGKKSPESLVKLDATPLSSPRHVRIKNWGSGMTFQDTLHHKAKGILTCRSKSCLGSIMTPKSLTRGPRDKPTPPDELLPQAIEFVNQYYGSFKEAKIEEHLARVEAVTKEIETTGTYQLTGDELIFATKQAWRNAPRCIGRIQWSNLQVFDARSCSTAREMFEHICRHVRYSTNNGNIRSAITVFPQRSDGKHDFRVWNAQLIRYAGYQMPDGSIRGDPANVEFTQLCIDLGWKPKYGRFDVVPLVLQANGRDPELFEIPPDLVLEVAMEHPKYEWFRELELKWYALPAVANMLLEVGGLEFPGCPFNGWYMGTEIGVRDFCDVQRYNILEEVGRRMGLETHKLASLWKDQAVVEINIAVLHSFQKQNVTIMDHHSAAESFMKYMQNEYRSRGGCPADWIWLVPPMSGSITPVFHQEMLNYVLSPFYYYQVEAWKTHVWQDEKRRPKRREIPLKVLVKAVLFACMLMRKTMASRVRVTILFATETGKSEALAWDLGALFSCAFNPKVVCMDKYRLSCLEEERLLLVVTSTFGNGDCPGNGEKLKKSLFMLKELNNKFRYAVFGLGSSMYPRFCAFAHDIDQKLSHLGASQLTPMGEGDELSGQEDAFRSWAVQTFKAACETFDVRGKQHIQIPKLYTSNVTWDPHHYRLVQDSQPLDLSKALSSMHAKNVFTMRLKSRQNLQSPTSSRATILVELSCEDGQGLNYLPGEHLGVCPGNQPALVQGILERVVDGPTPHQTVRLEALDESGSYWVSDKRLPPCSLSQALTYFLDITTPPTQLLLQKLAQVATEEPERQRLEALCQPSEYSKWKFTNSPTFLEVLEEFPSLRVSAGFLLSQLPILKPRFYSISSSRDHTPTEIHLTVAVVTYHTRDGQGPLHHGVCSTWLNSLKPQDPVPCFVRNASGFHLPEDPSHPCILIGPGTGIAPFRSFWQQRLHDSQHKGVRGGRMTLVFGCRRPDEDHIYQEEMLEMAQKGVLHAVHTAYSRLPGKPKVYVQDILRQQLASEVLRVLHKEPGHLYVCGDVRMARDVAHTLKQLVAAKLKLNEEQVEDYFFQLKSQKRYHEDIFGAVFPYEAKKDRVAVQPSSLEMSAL

## COc1ccc(CCc2cc(OC)c(OC(=O)c3ccccn3)c(OC)c2)cc1OC
PC-12 [1]
  Activity: 50.1%
PC-12 [2]
  Activity: 54.6%
PC-12 [3]
  Activity: 52.97%

## COc1cc(CCc2cc(O)cc(O)c2)ccc1O [TRISTIN]
HL-60
  IC50: 29.1 µM
RAW264.7
  inhibition at 25 µM: 27.2%
[4]
  IC50: 21.2 µM
THP-1
  IC50: 13.5 µM

## COc1ccc(CCc2cc(O)c(OC)c3c2Oc2c(cc(O)c(OC)c2O)C3Cc2ccc(OC)cc2)cc1 (centres undefined)
HL-60
  IC50: 6.4 µM

## COc1ccc(CCc2cc(OC)c(OC)c(OC)c2)cc1OC
NCI-H23
  IC50: 252 µM

## COc1cc(CC(O)c2cc(OC)c(O)c(OC)c2)ccc1O (centres undefined) [NOBILIN D]
[5]
  IC50: 19.9 µM

## COc1cc2c(c(OC)c1O)-c1c(OC)cc(CCc3cccc(O)c3)cc1O[C@H]2[C@H](O)CO
Bel-7402
  IC50: 10 µM
K562
  IC50: 10.3 µM

## COc1cc(CCc2cc(O)c(OC)c(OC)c2)ccc1O
SGC-7901
  IC50: 16.7 µM

## COC1=CC(O)(CCc2ccc(O)c(OC)c2)C=C(OC)C1=O
[6]
  inhibition: 35.3%
RAW264.7
  inhibition at 25 µM: 19.7%

## COc1ccc(CCc2cc(OC)c3c(c2)O[C@H](c2cc(O)c(O)c(OC)c2)[C@@H](c2ccc(OC)cc2)O3)cc1
HT-29
  IC50: 52 µM
HepG2 [7]
  IC50: 89.7 µM
MDA-MB-231
  IC50: 42.5 µM
[5]
  IC50: 21.3 µM

## COc1cc(CCc2ccc(O)c(O)c2)cc(O)c1O
[5]
  IC50: 15.6 µM

## COc1ccc(CC2c3cc(O)cc(CCc4ccc(O)cc4)c3Oc3c2cc(O)c(OC)c3O)cc1 (centres undefined)
HL-60
  IC50: 2.1 µM

## CCO[C@@H](Cc1ccc(O)cc1)c1cc(O)c(O)c(OC)c1
[5]
  IC50: 34.5 µM

## COc1ccc(CCc2cc3c(c(OC)c2)C[C@@H](CO)[C@H](c2ccc(O)c(OC)c2)C3)cc1
MCF7 [8]
  IC50: 38.5 µM

## COc1cc(O)cc(CCc2ccc(O)cc2)c1
PC-12 [9]
  Activity: 12.08%
HL-60
  IC50: 25.6 µM

## Oc1ccc(CCc2cc(Cl)ccc2O)cc1O
[10]
  IC50: 21.8 µM

## COc1cc(CCc2cc(O)c(O)c(OC)c2)ccc1O
NCI-H292
  IC50: 96.6 µM

## COc1cc([C@@H]2Oc3cc(CCc4ccc(O)cc4)cc(OC)c3O[C@H]2CO)cc(OC)c1O
PC-12 [9]
  Activity: 9.46%

## CCOc1c(OC)cc(CCc2ccc(OC)c(OC)c2)cc1OC
PC-12 [1]
  Activity: 50.92%
PC-12 [2]
  Activity: 46.15%
PC-12 [3]
  Activity: 53.84%

## COc1ccc(CCc2cc(OC)c(OC)c(OC)c2)cc1O
T-24
  IC50: 0.46 µM

## COc1cc(O)cc(CCc2ccc(O)c(O)c2)c1
[11]
  IC50: 680 µM
[10]
  IC50: 176 µM

## CC(C)c1ccc(CCc2cc(O)cc(O)c2)cc1
[10]
  IC50: 513 µM

## COc1cccc(CCc2cc(O)c(O)c(OC)c2)c1
[5]
  IC50: 40.3 µM

## COc1ccc(CCc2cc(OC)c(OC(=O)c3ccc(Cl)cc3)c(OC)c2)cc1OC
PC-12 [1]
  Activity: 69.24%
[12]
  Papp: 62 nm/s
PC-12 [2]
  Activity: 95.62%
PC-12 [3]
  Activity: 56.41%

## COc1ccc(CCc2cc(OC)c(OC(=O)CCc3ccccc3)c(OC)c2)cc1OC
PC-12 [1]
  Activity: 50.22%
PC-12 [2]
  Activity: 49.84%
PC-12 [3]
  Activity: 54%

## COc1cc(C[C@H](O)c2cc(O)cc(O)c2)ccc1O
RAW264.7
  inhibition at 25 µM: 15%

## COc1ccc(CCc2cc(OC)c(OC(=O)c3ccncc3)c(OC)c2)cc1OC
PC-12 [1]
  Activity: 50.71%
PC-12 [2]
  Activity: 46.56%
PC-12 [3]
  Activity: 53.53%

## COc1ccc(CCc2cc(OC)c(OCc3ccccc3)c(OC)c2)cc1OC
PC-12 [1]
  Activity: 60.89%
[12]
  Papp: 82 nm/s
PC-12 [2]
  Activity: 71%
PC-12 [3]
  Activity: 58.22%

## COc1cc(CCc2cc(OC)c(OC)c(OC)c2)ccc1O
NCI-H23
  IC50: 158 µM
[5]
  IC50: 21.8 µM

## COc1ccc(CCc2cc(OC)c(O)c(OC)c2)cc1OC
PC-12 [1]
  Activity: 55.02%
[12]
  Papp: 41 nm/s
PC-12 [2]
  Activity: 58.89%
NCI-H460 [13]
  IC50: 127 µM
PC-12 [3]
  Activity: 52.72%
NCI-H23
  IC50: 145 µM
[5]
  IC50: 14 µM

## COc1ccc(CC2C3=C(Cc4c2cc(O)c(O)c4OC)C(=O)c2cc(O)c4cc(O)ccc4c2C3=O)cc1 (centres undefined)
[5]
  IC50: 19.8 µM

## Oc1cc(O)cc(CCc2ccc(F)cc2)c1
[10]
  IC50: 566 µM

## COc1cc(O)cc(CCc2ccc(O)c(OC)c2)c1 [GIGANTOL]
KB
  IC50: 61.9 µM
HepG2 [14]
  IC50: 9.3 µM
HL-60
  IC50: 10.6 µM
Bel-7402
  IC50: 13 µM
MCF7 [15]
  IC50: 67.8 µM
NCI-H187
  IC50: 235 µM
SGC-7901
  IC50: 17.4 µM
[4]
  IC50: 73.3 µM
NCI-H460 [16]
  IC50: 76.9 µM
K562
  IC50: 63.9 µM
[5]
  IC50: 17.7 µM
THP-1
  IC50: 23.3 µM
